Reference: patent US8148532B2, “Spiro substituted compounds as angiogenesis inhibitors” (priority 2007, dated 2012)

What was measured:
Format in all cases: biochemical
Flt1(h) = molecular target: T1, Flt1(h) (Homo sapiens, UniProt P17948); assay: in vitro tyrosine kinase inhibition, Flt1(h)
T1 construct: purchased Millipore Upstate Ltd
Excerpt: (§1) Several in vitro tyrosine kinase inhibition activities can be measured according to the description in Rewcastle, G W, J. Med. Chem. 1996, 39, 918-928 and Edwards M, International Biotechnology Lab 5 (3), 19-25, 1987. Oncogene, 1990, 5: 519-524. The Baculovirus Expression System: A Laboratory Guide, L. A. King 1992. Sambrook et al, 1989, Molecular cloning—A Laboratory Manual, 2nd edition, Cold Spring Harbour Laboratory Press. O'Reilly et al, 1992, Baculovirus Expression Vectors—A Laboratory Manual, W. H. Freeman and Co, New York.
(§2) Receptor tyrosine kinase can be obtained in partially purified form from A-431 cells similar to those described by Carpenter et al., J. Biol. Chem., 1979, 254, 4884, Cohen et al., J. Biol. Chem., 1982, 257, 1523 and by Braun et al., J. Biol. Chem., 1984, 259, 2051. Some of these tests can also be contracted with Millipore Upstate Ltd for screening.

Flt4(h) = molecular target: T2, Flt4(h) (Homo sapiens, UniProt P35916); assay: in vitro tyrosine kinase inhibition, Flt4(h)
T2 construct: purchased Millipore Upstate Ltd
T2 sequence (P35916 25-1363): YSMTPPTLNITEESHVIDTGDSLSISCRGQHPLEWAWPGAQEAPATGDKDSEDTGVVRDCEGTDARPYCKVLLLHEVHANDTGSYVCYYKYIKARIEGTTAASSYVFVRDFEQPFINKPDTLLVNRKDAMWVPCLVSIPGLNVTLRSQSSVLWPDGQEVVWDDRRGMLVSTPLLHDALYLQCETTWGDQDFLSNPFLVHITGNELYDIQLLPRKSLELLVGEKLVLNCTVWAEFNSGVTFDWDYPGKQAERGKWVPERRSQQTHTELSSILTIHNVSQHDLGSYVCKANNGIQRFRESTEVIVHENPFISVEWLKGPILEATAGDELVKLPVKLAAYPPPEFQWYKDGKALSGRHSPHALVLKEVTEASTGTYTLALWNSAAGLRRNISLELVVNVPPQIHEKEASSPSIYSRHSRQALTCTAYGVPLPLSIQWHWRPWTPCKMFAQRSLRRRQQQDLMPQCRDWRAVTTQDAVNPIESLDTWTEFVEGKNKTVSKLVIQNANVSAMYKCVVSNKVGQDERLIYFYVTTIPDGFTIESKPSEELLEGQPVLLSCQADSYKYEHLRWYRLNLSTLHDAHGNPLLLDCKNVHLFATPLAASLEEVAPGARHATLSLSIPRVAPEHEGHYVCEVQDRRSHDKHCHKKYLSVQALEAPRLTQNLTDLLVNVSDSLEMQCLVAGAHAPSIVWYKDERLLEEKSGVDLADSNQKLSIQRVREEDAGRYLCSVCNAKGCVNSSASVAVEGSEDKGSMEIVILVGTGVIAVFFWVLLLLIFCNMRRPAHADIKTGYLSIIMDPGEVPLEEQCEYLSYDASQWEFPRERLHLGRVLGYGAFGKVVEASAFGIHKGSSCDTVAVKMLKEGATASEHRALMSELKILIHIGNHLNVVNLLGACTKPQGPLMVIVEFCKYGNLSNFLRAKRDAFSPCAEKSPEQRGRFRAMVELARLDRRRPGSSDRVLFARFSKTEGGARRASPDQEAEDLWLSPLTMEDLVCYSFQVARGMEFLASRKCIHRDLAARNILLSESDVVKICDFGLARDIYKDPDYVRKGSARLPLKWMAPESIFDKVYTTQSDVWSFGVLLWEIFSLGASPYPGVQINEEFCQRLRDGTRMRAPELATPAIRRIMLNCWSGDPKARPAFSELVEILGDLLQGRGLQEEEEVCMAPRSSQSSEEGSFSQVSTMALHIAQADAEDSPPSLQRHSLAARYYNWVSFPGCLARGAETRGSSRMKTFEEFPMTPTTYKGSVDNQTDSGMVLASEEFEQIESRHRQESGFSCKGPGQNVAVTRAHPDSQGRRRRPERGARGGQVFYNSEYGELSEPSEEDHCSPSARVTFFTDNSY
Excerpt: as §1, §2

FGFR1(h) = molecular target: T3, FGFR1(h) (Homo sapiens, UniProt P11362); assay: in vitro tyrosine kinase inhibition, FGFR1(h)
T3 construct: purchased Millipore Upstate Ltd
T3 sequence (P11362 22-822): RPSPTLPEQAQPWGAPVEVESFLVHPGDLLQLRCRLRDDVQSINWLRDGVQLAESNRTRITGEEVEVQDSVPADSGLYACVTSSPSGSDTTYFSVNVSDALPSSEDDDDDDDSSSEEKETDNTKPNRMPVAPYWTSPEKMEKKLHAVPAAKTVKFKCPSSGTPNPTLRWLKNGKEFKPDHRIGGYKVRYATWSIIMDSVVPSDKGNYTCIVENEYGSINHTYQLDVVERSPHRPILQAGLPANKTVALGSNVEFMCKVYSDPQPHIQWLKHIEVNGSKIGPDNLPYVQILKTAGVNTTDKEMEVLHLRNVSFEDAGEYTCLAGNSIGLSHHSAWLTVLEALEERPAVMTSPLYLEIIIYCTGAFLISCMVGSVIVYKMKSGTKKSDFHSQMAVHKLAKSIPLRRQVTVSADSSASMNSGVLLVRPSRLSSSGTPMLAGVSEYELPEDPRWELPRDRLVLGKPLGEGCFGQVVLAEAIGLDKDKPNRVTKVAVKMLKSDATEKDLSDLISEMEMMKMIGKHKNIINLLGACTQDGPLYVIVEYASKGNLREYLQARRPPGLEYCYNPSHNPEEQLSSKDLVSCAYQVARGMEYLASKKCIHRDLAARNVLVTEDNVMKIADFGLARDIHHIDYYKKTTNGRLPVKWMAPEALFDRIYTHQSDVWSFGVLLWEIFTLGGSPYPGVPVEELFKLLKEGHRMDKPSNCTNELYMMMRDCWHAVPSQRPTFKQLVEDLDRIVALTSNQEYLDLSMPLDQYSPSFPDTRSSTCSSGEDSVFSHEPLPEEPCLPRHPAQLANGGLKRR
Excerpt: as §1, §2

KDR(h) = molecular target: T4, KDR(h) (Homo sapiens, UniProt P35968); assay: in vitro tyrosine kinase inhibition, KDR(h)
T4 construct: purchased Millipore Upstate Ltd
T4 sequence (P35968 20-1356): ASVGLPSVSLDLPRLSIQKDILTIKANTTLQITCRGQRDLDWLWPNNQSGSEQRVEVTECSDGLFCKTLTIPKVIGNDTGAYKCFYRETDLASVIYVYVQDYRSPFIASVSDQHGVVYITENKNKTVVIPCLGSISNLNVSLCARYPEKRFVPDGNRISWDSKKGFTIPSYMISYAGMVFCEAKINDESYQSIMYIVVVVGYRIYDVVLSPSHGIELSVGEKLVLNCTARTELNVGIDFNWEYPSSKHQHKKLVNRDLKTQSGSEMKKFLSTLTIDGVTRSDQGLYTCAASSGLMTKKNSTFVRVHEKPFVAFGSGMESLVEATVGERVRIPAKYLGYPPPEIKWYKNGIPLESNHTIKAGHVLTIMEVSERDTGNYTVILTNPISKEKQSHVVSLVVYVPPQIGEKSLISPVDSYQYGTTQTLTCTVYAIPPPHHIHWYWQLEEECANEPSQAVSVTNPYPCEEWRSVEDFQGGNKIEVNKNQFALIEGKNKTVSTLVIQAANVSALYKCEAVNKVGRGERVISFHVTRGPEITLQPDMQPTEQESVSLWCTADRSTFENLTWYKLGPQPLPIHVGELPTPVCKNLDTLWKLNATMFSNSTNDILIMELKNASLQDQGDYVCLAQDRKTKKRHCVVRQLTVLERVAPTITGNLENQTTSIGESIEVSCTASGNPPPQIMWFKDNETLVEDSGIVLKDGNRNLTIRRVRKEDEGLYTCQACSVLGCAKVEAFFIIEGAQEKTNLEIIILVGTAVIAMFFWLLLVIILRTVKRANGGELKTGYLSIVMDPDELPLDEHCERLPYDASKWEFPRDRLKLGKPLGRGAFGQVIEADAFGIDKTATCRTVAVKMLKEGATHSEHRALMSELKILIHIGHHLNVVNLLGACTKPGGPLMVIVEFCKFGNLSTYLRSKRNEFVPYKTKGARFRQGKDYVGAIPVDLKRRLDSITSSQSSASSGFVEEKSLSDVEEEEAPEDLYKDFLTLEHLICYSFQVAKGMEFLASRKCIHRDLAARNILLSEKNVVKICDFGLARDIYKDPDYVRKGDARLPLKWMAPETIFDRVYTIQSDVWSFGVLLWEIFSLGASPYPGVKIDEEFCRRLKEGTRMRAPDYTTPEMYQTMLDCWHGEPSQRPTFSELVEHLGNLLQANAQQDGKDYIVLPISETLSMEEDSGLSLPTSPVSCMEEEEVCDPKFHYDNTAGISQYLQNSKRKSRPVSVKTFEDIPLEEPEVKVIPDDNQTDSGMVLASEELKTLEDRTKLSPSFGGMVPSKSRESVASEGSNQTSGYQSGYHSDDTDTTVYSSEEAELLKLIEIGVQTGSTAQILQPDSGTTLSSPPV
Excerpt: as §1, §2

T1 sequence (P17948 27-1338): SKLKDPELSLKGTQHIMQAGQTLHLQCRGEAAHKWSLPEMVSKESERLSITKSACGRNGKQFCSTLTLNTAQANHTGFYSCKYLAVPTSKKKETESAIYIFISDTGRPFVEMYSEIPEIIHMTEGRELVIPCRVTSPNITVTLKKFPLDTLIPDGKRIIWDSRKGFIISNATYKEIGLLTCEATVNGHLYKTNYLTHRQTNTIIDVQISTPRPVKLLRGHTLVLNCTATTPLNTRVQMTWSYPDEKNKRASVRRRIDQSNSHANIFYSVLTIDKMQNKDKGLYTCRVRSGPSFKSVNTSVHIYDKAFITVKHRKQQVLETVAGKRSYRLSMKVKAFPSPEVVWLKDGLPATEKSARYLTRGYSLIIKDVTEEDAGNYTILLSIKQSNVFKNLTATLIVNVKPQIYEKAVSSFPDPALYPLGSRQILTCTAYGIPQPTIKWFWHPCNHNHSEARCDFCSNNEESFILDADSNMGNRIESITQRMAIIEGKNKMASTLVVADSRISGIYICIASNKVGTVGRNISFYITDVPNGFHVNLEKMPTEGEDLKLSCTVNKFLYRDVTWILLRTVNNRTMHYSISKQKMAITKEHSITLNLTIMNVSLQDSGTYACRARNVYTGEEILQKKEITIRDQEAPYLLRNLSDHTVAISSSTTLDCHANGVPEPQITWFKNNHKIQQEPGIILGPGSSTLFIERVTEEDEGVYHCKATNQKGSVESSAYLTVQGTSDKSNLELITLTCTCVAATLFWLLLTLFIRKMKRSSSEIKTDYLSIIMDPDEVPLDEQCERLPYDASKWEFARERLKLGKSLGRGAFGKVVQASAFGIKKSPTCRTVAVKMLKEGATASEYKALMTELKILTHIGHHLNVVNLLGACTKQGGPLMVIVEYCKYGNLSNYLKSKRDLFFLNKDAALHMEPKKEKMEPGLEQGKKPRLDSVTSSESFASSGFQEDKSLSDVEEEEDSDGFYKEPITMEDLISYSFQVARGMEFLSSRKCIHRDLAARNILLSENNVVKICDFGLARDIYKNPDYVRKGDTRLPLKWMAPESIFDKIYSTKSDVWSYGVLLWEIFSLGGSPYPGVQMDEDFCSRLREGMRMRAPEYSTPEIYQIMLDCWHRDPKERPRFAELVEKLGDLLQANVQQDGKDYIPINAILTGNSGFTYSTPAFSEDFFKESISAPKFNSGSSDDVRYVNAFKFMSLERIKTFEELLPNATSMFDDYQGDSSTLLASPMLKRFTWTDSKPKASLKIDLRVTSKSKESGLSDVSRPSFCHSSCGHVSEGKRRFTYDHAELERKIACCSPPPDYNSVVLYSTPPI

## COc1cc2c(Oc3ccc4[nH]c(C)cc4c3F)ccnc2cc1OCC1(N)CC1 [AL3818]
Flt1(h)
  IC50: 4 nM
Flt4(h)
  IC50: 1 nM
FGFR1(h)
  IC50: 20 nM
KDR(h)
  IC50: 45 nM
